Laboratory results as given in patent US10870647B2, “Imidazopyridine derivative, method for preparing same, and pharmaceutical composition containing same as active ingredient for preventing or treating cancer” (DAEGU-GYEONGBUK MEDICAL INNOVATION FOUNDATION, priority 2016, dated 2020).

Legend:
Assay in all cases: Kinase selectivity, scanMAX Kinase assay panel (DiscoverX), % control at 1 uM
Type in all cases: binding
[1] = biological target: T1, scanMAX Kinase assay panel (Homo sapiens, UniProt P42336, C420R); conditions: PIK3CA (C420R); 1 uM; read-out: Percent Control (%)
T1 construct: purchased DiscoverX
Outline: (§1)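 Activity was called for kinases showing % control under 35, calculated from compound signal relative to positive and negative controls. Each compound screened at 1 uM against the DiscoverX scanMAX panel.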

[2] = biological target: T2, scanMAX Kinase assay panel (Homo sapiens, UniProt O15111); conditions: IKK-alpha; 1 uM; read-out: Percent Control (%)
T2 construct: purchased DiscoverX
T2 sequence (O15111 1-745): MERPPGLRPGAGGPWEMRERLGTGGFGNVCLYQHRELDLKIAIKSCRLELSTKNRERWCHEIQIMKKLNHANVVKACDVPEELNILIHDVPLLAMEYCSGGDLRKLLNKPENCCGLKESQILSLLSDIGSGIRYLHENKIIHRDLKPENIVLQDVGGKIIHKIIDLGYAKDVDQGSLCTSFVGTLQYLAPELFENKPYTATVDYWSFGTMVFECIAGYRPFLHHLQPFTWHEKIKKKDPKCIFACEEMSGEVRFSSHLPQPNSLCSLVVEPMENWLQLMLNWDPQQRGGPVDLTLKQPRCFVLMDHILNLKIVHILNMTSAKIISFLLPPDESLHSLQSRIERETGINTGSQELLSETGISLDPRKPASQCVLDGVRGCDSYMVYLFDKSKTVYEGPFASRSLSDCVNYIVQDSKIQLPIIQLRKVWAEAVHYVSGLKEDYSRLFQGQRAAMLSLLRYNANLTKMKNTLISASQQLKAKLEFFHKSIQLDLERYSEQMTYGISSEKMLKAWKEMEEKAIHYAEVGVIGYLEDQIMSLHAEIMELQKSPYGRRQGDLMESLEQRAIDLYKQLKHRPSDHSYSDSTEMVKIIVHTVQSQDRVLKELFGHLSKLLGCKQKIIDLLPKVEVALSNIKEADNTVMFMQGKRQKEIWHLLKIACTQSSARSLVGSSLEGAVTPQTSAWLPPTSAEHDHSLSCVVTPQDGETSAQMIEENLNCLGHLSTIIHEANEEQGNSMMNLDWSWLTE
Outline: as §1

[3] = biological target: T3, scanMAX Kinase assay panel (Homo sapiens, UniProt P54764); conditions: EPHA4; 1 uM; read-out: Percent Control (%)
T3 construct: purchased DiscoverX
Outline: as §1

[4] = biological target: T4, scanMAX Kinase assay panel (Homo sapiens, UniProt P29317); conditions: EPHA2; 1 uM; read-out: Percent Control (%)
T4 construct: purchased DiscoverX
Outline: as §1

[5] = biological target: T5, scanMAX Kinase assay panel (Homo sapiens, UniProt P08922); conditions: ROS1; 1 uM; read-out: Percent Control (%)
T5 construct: purchased DiscoverX
Outline: as §1

[6] = biological target: T6, scanMAX Kinase assay panel (Homo sapiens, UniProt P06213); conditions: INSR; 1 uM; read-out: Percent Control (%)
T6 construct: purchased DiscoverX
Outline: as §1

[7] = biological target: T7, scanMAX Kinase assay panel (Homo sapiens, UniProt Q9Y243); conditions: AKT3; 1 uM; read-out: Percent Control (%)
T7 construct: purchased DiscoverX
Outline: as §1

[8] = biological target: T8, scanMAX Kinase assay panel (Homo sapiens, UniProt Q9NRP7); conditions: STK36; 1 uM; read-out: Percent Control (%)
T8 construct: purchased DiscoverX
T8 sequence (Q9NRP7 1-1315): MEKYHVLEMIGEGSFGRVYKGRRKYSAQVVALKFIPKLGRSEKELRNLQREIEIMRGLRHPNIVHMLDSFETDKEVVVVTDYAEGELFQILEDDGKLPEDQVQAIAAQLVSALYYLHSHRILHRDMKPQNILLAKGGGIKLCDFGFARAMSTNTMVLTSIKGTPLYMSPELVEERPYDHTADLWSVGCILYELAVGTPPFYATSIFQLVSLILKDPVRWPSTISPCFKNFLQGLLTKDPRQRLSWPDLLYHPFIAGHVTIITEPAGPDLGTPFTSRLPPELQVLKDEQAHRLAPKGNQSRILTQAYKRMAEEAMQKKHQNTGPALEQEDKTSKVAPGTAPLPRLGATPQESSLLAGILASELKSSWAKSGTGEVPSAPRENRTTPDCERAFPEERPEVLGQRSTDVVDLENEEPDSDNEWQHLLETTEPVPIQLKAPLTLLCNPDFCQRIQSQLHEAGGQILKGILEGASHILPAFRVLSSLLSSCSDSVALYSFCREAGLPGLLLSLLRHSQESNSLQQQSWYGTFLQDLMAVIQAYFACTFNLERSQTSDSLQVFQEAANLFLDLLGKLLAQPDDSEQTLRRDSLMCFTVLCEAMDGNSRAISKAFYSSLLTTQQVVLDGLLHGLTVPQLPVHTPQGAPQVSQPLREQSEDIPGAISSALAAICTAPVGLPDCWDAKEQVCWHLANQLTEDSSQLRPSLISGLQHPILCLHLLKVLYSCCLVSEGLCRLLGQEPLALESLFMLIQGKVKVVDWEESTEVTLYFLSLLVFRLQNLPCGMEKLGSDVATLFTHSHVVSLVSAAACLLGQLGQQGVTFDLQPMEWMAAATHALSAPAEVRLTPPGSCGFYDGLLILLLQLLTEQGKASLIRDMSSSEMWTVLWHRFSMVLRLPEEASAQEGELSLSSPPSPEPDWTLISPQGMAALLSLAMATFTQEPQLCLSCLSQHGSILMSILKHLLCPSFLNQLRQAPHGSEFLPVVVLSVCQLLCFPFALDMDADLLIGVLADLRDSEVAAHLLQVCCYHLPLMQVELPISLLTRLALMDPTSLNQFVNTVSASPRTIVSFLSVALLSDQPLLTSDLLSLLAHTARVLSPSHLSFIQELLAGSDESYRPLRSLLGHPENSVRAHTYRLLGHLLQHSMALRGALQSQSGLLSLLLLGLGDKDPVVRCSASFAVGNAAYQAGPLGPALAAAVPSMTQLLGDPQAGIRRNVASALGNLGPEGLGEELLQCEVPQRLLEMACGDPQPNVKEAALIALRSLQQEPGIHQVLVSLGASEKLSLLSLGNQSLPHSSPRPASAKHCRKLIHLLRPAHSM
Outline: as §1

[9] = biological target: T9, scanMAX Kinase assay panel (Homo sapiens, UniProt P11309); conditions: PIM1; 1 uM; read-out: Percent Control (%)
T9 construct: purchased DiscoverX
Outline: as §1

T3 sequence (P54764 20-986): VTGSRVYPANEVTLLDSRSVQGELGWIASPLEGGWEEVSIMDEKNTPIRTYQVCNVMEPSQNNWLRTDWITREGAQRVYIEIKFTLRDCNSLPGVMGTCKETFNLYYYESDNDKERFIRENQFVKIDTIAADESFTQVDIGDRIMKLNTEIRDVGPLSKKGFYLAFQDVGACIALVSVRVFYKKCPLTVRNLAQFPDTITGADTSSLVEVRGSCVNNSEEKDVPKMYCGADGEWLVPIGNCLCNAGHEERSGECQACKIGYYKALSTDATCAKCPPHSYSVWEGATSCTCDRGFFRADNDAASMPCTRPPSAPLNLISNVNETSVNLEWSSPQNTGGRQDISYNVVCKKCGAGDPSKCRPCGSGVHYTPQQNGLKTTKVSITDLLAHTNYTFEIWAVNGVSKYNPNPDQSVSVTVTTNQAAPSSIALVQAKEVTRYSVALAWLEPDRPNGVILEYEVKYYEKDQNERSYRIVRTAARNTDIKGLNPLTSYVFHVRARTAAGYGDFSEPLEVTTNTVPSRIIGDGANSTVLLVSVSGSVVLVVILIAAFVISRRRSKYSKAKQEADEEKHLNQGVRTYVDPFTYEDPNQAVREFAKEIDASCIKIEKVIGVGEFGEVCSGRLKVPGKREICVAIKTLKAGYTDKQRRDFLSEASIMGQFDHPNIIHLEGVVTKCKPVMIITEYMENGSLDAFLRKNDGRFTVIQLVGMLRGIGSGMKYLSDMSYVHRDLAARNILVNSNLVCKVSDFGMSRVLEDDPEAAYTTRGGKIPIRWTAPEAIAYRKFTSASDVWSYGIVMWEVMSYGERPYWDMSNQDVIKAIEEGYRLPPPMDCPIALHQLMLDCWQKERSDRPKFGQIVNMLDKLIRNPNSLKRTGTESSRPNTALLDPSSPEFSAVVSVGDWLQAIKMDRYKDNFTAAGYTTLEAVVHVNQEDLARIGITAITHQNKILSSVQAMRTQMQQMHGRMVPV
T4 sequence (P29317 24-976): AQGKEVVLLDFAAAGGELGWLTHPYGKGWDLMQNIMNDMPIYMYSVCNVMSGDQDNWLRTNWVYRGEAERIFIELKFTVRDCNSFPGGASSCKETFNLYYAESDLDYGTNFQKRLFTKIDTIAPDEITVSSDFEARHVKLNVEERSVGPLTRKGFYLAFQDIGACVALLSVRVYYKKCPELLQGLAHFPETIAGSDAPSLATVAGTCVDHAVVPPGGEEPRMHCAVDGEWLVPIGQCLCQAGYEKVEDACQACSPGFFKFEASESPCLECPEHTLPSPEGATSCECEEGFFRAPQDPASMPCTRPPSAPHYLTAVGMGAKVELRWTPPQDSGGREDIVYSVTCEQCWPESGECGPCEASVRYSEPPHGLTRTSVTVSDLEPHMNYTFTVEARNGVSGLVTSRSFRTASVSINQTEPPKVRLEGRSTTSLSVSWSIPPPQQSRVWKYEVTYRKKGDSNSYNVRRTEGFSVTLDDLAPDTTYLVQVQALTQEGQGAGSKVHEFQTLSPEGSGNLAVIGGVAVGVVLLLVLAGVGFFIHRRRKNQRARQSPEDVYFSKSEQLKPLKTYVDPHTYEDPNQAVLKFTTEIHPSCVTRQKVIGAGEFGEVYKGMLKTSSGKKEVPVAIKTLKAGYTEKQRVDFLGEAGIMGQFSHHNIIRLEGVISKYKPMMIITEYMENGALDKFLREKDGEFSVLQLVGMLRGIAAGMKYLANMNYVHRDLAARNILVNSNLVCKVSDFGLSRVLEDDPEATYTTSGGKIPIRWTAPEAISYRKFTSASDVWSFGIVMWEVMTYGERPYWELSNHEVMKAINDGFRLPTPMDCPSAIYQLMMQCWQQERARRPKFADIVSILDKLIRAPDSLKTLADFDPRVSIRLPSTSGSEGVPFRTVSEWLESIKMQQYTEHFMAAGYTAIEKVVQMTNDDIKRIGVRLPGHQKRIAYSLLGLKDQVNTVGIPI
T1 sequence (P42336 whole entry C420R): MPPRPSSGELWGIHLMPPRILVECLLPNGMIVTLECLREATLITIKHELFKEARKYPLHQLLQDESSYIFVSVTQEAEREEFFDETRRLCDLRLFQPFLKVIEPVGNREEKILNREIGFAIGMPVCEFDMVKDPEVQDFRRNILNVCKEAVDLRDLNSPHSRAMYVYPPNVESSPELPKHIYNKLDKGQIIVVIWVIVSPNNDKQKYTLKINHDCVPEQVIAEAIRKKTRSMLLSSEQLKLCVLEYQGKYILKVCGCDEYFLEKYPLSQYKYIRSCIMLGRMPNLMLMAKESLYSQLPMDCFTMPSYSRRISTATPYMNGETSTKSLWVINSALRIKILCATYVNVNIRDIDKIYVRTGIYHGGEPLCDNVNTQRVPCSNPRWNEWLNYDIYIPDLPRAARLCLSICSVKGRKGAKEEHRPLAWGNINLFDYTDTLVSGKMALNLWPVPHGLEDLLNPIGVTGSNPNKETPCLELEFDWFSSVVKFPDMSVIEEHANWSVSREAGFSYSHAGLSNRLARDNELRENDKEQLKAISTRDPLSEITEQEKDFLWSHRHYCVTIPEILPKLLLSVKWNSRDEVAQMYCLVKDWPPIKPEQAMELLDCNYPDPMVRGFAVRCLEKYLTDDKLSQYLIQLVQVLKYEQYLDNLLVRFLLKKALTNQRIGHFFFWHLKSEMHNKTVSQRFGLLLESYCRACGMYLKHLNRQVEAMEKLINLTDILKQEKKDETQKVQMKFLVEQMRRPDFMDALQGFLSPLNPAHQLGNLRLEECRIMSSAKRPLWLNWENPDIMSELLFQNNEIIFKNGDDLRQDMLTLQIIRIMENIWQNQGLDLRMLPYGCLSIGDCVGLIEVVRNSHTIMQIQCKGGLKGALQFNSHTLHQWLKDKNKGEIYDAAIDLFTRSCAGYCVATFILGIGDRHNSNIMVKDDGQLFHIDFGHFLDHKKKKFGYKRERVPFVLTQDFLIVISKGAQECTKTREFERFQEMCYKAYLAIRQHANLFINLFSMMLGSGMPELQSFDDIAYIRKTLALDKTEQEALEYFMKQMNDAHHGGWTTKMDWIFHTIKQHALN
T9 sequence (P11309 whole entry): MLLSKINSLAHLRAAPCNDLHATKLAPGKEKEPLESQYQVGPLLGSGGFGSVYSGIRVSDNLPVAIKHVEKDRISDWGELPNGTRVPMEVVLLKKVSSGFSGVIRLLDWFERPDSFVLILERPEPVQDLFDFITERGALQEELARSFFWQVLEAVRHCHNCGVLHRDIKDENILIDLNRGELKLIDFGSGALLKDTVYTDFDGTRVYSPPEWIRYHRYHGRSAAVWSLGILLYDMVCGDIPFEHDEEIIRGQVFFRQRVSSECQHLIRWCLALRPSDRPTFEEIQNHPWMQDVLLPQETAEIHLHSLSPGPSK
T6 sequence (P06213 28-1382): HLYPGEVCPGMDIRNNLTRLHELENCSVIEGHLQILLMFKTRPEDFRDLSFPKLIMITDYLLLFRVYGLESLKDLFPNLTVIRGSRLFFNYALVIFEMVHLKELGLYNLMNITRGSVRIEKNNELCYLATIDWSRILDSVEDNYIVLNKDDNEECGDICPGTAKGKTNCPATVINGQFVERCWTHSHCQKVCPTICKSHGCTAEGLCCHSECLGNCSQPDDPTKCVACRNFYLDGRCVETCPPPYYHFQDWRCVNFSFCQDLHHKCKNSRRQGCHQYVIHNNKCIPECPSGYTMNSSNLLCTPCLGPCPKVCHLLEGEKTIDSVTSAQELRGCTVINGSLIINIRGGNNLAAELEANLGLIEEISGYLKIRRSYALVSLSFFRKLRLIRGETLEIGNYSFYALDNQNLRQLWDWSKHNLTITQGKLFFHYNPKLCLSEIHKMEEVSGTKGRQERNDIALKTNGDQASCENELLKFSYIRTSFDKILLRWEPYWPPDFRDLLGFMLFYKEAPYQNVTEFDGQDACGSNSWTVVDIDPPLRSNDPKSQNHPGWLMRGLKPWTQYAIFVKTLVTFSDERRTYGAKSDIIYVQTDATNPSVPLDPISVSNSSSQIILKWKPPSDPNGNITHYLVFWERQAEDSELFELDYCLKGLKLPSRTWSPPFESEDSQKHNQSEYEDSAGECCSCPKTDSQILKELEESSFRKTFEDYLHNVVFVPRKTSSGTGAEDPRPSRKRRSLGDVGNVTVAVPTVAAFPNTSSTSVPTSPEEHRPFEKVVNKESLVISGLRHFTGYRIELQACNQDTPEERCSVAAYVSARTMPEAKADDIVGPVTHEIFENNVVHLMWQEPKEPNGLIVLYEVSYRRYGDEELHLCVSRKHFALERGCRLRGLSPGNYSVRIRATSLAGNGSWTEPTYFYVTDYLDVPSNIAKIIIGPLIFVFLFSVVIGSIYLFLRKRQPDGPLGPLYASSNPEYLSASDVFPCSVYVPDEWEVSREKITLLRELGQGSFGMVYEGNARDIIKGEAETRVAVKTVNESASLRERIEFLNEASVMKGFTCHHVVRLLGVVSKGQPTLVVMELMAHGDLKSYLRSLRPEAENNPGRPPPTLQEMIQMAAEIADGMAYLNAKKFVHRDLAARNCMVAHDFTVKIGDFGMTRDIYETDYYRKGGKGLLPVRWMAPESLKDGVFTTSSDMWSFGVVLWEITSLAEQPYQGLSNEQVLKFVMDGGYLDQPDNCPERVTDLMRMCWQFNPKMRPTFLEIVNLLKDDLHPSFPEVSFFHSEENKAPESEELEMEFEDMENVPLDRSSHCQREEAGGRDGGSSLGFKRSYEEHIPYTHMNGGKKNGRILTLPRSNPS

Row | Compound | remaining binding at 1 µM [1] | remaining binding at 1 µM [2] | remaining binding at 1 µM [3] | remaining binding at 1 µM [4] | remaining binding at 1 µM [5] | remaining binding at 1 µM [6] | remaining binding at 1 µM [7] | remaining binding at 1 µM [8] | remaining binding at 1 µM [9]
1 | Cc1ccc(C(=O)Nc2ccc(CN3CCN(C)CC3)c(C(F)(F)F)c2)cc1C#Cc1cnc2c(Nc3cnn(C)c3)cccn12 [Example 1, 4-methyl-3-((8-((1-methyl-1H-pyrazol-4-yl)amino)imidazo[1,2-a]pyridin-3-yl)ethynyl)-N-(4-((4-methylpiperazin-1-yl)methyl)-3-(trifluoromethyl)phenyl)benzamide] | 97% | 2% | 1% | 2% | 39% | 54% | 99% | 1% | 82%
2 | Cc1cn(-c2cc(NC(=O)c3ccc(C)c(C#Cc4cnc5c(Nc6cnn(C)c6)cccn45)c3)cc(C(F)(F)F)c2)cn1 [Example 12, 4-methyl-N-(3-(4-methyl-1H-imidazol-1-yl)-5-(trifluoromethyl)phenyl)-3-((8-((1-methyl-1H-pyrazol-4-yl)amino)imidazo[1,2-a]pyridin-3-yl)ethynyl)benzamide] | 100% | 28% | 24% | 9% | 51% | 99% | 99% | 89% | 92%
3 | Cc1ccc(NC(=O)C2(C(=O)Nc3ccc(F)cc3)CC2)cc1C#Cc1cnc2c(Nc3cnn(C(C)C)c3)cccn12 [Example 78] | 100% | 100% | 91% | 91% | 92% | 100% | 95% | 100% | 100%
